Laboratory results reported in publication PMC6934184, “Selective DNA-PKcs inhibition extends the therapeutic index of localized radiotherapy and chemotherapy” (The Journal of Clinical Investigation, 2019).

Target: T1, CSNK1G3 (CK1 gamma 3) (Homo sapiens, UniProt Q9Y6M4)
T1 construct: purchased Thermo Fisher Scientific (Life Technologies) SelectScreen
Experiment: SelectScreen Z'LYTE
Assay type: biochemical
Outline: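 Compound tested in SelectScreen activity assays, Z'LYTE for CSF1R, CDK1/cyclin B and MAP2K6 and Adapta for CAMK1. ATP for CAMK1 was listed as 10, and Km app was used for CSF1R. Results are expressed in percent.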

T1 sequence (Q9Y6M4 whole entry): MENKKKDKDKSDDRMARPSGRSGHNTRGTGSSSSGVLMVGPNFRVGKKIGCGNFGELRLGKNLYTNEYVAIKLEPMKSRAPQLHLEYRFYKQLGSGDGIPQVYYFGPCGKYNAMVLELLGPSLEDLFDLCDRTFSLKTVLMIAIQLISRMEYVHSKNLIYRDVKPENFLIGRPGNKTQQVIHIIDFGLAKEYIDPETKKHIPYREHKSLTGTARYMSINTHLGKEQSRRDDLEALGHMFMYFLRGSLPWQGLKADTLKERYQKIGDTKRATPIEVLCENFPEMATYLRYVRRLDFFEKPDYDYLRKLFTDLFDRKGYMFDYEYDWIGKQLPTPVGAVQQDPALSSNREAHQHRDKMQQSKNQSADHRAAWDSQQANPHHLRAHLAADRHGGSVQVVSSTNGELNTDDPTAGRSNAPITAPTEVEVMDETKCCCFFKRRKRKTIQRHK

## CN(C(=O)CN1CCOCC1)c1ccc2sc3c(-c4cccc5c(=O)cc(N6CC7CCC(C6)O7)oc45)cccc3c2c1 [NU5455]
  inhibition at 1 µM: 4.2%
